Among the data in patent EP4467141A1, “PYRAZOLO-QUINOLINES AS SELECTIVE INHIBITORS OF GENOTOXIC STRESS-INDUCED IKK/NF- KB PATHWAYS FOR CANCER THERAPY” (Max-Delbrück-Centrum für Molekulare Medizin in der …, priority 2023, dated 2024) are inhibition values, retold here.

A word on the inhibition: it is the drop in the measured response relative to a control, in per cent.

Molecules are shown by their SMILES.

Experiment in all cases: Kinase panel study
Common to all, as to format: biochemical
Common to all, as to settings: read-out: Percentage of inhibition; for inhibition at 1 µM: 1000nM; for inhibition at 10 µM: 10000nM

The target of one test is T1, ACVR1B (ALK4) (Homo sapiens, UniProt P36896).
T1 construct: purchased Thermo Fisher Scientific
T1 sequence (P36896 24-505): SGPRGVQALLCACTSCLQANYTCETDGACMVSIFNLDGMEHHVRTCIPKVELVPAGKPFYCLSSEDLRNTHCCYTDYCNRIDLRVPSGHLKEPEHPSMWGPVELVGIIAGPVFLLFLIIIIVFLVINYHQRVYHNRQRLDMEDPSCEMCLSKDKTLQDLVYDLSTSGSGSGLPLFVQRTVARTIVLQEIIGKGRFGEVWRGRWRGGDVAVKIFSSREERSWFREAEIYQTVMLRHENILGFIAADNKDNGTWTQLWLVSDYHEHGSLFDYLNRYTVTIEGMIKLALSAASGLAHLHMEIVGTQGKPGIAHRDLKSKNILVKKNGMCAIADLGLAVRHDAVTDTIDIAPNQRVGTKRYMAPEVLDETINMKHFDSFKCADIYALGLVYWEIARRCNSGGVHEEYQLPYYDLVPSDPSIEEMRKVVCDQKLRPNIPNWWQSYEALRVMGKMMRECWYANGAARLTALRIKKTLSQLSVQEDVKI
An outline of the steps: (§1)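 Readout is percentage kinase inhibition. Testing used 1 µM or 10 µM compound in externally run ZLyte/Adapta in vitro assays, and IC50 values were derived within the same panel.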

A further test concerns the target T2, AURKB (Aurora B) (Homo sapiens, UniProt Q96GD4).
T2 construct: purchased Thermo Fisher Scientific
A digest of the protocol:
as §1

The target of the next test is T3, CHEK1 (CHK1) (Homo sapiens, UniProt O14757).
T3 construct: purchased Thermo Fisher Scientific
T3 sequence (O14757 1-476): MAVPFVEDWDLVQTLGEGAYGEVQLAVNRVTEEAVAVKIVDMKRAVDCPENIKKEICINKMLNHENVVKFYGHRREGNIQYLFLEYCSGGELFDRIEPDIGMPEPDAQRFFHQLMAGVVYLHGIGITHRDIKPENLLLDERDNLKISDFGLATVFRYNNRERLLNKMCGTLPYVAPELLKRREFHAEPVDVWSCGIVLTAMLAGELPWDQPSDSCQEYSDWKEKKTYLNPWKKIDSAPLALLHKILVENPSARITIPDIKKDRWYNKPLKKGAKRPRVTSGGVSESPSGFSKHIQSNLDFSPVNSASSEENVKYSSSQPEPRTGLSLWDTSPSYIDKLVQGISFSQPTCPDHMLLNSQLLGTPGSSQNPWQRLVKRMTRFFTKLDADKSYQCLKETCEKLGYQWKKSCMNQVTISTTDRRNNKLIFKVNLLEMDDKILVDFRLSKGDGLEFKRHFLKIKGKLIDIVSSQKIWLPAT
A digest of the protocol: as §1

The next test concerns the target T4, DYRK4 (Homo sapiens, UniProt Q9NR20).
T4 construct: purchased Thermo Fisher Scientific
T4 sequence (Q9NR20 1-520): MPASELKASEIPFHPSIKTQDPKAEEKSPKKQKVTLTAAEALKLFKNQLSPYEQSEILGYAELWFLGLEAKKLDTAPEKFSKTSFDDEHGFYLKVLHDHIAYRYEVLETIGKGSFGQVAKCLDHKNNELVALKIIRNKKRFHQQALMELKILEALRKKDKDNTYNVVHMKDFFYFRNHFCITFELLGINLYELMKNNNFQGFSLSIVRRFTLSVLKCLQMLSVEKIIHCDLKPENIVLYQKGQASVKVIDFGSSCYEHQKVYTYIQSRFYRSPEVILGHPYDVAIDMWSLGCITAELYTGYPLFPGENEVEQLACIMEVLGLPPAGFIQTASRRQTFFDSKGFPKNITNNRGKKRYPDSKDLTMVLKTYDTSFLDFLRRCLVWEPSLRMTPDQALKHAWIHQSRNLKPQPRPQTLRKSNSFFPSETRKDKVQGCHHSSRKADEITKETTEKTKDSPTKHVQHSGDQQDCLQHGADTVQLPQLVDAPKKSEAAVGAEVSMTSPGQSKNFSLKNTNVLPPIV
A digest of the protocol:
as §1

Another test addresses T5, MAPK7 (ERK5) (Homo sapiens, UniProt Q13164).
T5 construct: purchased Thermo Fisher Scientific
An outline of the steps:
as §1

T5 sequence (Q13164 whole entry): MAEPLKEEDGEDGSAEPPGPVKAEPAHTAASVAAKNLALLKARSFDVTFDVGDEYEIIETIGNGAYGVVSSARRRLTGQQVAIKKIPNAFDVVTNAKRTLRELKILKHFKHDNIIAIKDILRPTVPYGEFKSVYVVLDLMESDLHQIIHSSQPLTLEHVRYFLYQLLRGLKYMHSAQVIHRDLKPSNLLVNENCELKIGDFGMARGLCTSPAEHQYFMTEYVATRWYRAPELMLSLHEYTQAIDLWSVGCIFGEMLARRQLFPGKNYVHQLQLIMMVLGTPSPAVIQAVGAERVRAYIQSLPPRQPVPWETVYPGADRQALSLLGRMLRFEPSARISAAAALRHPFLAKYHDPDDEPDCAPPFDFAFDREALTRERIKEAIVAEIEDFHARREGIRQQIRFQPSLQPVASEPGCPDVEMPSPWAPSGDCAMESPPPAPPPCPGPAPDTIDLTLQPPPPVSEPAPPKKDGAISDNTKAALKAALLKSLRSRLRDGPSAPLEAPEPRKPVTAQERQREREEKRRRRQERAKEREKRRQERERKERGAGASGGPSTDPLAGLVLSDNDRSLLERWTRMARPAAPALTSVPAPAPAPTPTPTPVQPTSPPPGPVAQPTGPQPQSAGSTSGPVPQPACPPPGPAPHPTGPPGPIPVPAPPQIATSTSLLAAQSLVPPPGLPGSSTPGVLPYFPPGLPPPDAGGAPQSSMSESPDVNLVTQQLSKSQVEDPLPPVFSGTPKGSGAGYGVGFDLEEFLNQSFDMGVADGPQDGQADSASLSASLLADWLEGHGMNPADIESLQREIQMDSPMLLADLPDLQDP
T2 sequence (Q96GD4 whole entry): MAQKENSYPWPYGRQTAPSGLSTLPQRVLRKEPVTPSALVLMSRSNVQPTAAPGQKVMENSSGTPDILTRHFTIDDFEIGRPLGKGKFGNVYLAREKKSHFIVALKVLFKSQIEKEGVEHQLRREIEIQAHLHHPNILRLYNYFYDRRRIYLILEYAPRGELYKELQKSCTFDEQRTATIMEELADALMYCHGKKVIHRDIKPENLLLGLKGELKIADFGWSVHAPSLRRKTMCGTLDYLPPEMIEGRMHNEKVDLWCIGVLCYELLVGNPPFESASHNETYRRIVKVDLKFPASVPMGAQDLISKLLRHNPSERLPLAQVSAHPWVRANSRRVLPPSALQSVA

Regarding `COc1ccc2c(c1OC)c(=O)n1c3ccc(O)cc3c3ccnc2c31` [MW01, 5-Hydroxy-10,11-dimethoxy-9H-benzo[c]indolo[3,2,1-ij][1,5]naphthyridin-9-one], the inhibition at 1 µM at ACVR1B (ALK4) is -9%; on AURKB (Aurora B), 15%; on CHEK1 (CHK1), 4%; at DYRK4, -2%; on MAPK7 (ERK5) it was 9%. Also, the inhibition at 10 µM at ACVR1B (ALK4) was -3%; at AURKB (Aurora B), 19%; on CHEK1 (CHK1), 13%; at DYRK4, 0%; on MAPK7 (ERK5), 1%.
With `COc1ccc2cc3c(N)nn(C(=O)c4cccc(N(C)C)c4)c3nc2c1` [MW05, (3-Amino-7-methoxypyrazolo[3,4-b]quinolin-1-yl)-[3-(dimethylamino)phenyl]methanone], the inhibition at 1 µM was 1% at ACVR1B (ALK4); 8% on AURKB (Aurora B); 16% at CHEK1 (CHK1); 4% at DYRK4; 2% at MAPK7 (ERK5). Also, the inhibition at 10 µM on ACVR1B (ALK4) was -8%; at AURKB (Aurora B), -6%; on CHEK1 (CHK1), 27%; on DYRK4, 4%; at MAPK7 (ERK5), -7%.
